According to paper PMC11779861 (Scientific Reports, 2025):
Read-outs that look alike come from different tables or passages of the source.

Key:
hiPSC-CMs = assay: Extracellular lactate dehydrogenase; assay type: cell-based, human; conditions: 48-hour treatment
[1] = test system: ARPE-19 human retinal cells; assay: MTS cell growth assay; assay type: cell-based; conditions: read-out: IC50 (cell growth)
[2] = test system: Human Induced Pluripotent Stem Cell (hiPSC)-Derived Cardiomyocytes
hiPSC-CM cell monolayer = assay: Cell health index: cardiomyocyte cell monolayer assessment; assay type: cell-based, human
[3] = cited from earlier work

Q: Which results are given for `C=CCNC1=C2C[C@@H](C)C[C@H](OC)[C@H](O)[C@@H](C)/C=C(\C)[C@H](OC(N)=O)[C@@H](OC)/C=C\C=C(/C)C(=O)NC(=CC1=O)C2=O` [17-AAG]?
A: extracellular LDH (in words) (hiPSC-CMs): highly dose-dependently toxic; IC50 ([1]; ARPE-19, 48 hr, MTS, Avg ± SD, N = 3 biological replicates): 20 nM; quiescence ([2]; 0.25 µM, 48 h): 1/8; quiescence ([2]; 2.5 µM, 24 h): 1/8; quiescence ([2]; 2.5 µM, 48 h): 6/8; quiescence ([2]; 10 µM, 24 h): 8/8; quiescence ([2]; 10 µM, 48 h): 8/8; quiescence ([2]; 50 µM, 24 h): 8/8; quiescence ([2]; 50 µM, 48 h): 8/8; cardiomyocyte function / cardio-toxicity (in words) ([2]; 24 h): severe dysregulation of cardiomyocyte function

Q: With `COc1cccc2c1C(=O)c1c(O)c3c(c(O)c1C2=O)C[C@@](O)(C(=O)CO)C[C@@H]3O[C@H]1C[C@H](N)[C@H](O)[C@H](C)O1` [Doxorubicin] as the compound, how does the “effect on the cell monolayer (in words)” value (hiPSC-CM cell monolayer) read?
A: greater monolayer damage at both 24 and 48 h

Q: What about the electrical quiescence ([2]; 0.3 µM, 30 min) of the same compound?
A: 1/8

Q: What about the “cardiomyocyte function / cardio-toxicity (in words)” value ([2]; 24 h) of the same compound?
A: largely had no effect on electrophysiology

Q: With `CCNC(=O)c1noc(-c2cc(C(C)C)c(O)cc2O)c1-c1ccc(CN2CCOCC2)cc1` [NVP AUY922] as the compound, how does the IC50 ([1]; Homo sapiens, ARPE-19, 48 h) read?
A: < 10 nM

Q: With `CCc1cc(C(N)=O)ccc1-n1nc(C(C)C)c2c(-n3cnc(-c4cnn(C)c4)c3)ccnc21` [TAS-116] as the compound, how does the “ocular toxicities in vivo” value [3] read?
A: avoid any ocular toxicities in vivo

Q: What about the IC50 ([1]; Homo sapiens, ARPE-19, 48 h) of the same compound?
A: 444 nM
